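A five-concentration, 48-hour dose response in 96-well plates underlies each endpoint, interpolated linearly between surrounding concentrations. GI50 marks 50% less growth. TGI: concentration producing complete growth inhibition.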
How the values were obtained:
Assay in all cases: NCI anticancer screen, dose series, 48 h
NCI-H226 lung = system: NCI-H226 lung
CCRF-CEM leukemia = system: CCRF-CEM leukemia
NCI-H460 lung = system: NCI-H460 lung
SF-539 CNS = system: SF-539 CNS
ACHN renal = system: ACHN renal
HOP-92 NSCLC = system: HOP-92 NSCLC
NCI-H23 lung = system: NCI-H23 lung
UACC-257 melanoma = system: UACC-257 melanoma
MALME-3M melanoma = system: MALME-3M melanoma
HT29 colon = system: HT29 colon

Row | Structure (SMILES) | TGI (NCI-H226 lung) | TGI (CCRF-CEM leukemia) | TGI (NCI-H460 lung) | TGI (SF-539 CNS) | TGI (ACHN renal) | TGI (HOP-92 NSCLC) | TGI (NCI-H23 lung) | TGI (UACC-257 melanoma) | TGI (MALME-3M melanoma) | TGI (HT29 colon) | GI50 (NCI-H226 lung) | GI50 (CCRF-CEM leukemia) | GI50 (NCI-H460 lung) | GI50 (SF-539 CNS) | GI50 (ACHN renal) | GI50 (HOP-92 NSCLC) | GI50 (NCI-H23 lung) | GI50 (UACC-257 melanoma) | GI50 (MALME-3M melanoma) | GI50 (HT29 colon)
1 | Cc1cccc(C)c1N1C(=O)C(=O)C(c2nc3ccccc3s2)/C(=N/NC(=O)NN)C1=O (stereo not given) | > 100 µM | > 100 µM | > 100 µM | > 100 µM | > 100 µM | > 100 µM | > 100 µM | > 100 µM | > 100 µM | > 100 µM | – | – | – | – | – | – | – | – | – | –
2 | CCN(CC)c1ccc(/C=C/C2=[N+](C)c3ccccc3C2(C)C)c(C)c1 | 1.69 µM | 4.68 µM | 1.3 µM | 7 µM | 3.97 µM | 0.148 µM | 10.5 µM | 0.226 µM | 1.09 µM | 1.32 µM | 0.0444 µM | 0.0271 µM | < 0.0222 µM | 0.0939 µM | 0.0773 µM | 0.0217 µM | < 0.0244 µM | 0.0546 µM | 0.155 µM | 0.0463 µM
3 | CC1c2ccccc2N=C2SC(=S)N3CCN=C3N21 (stereo not given) | > 100 µM | > 100 µM | > 100 µM | > 100 µM | > 100 µM | > 100 µM | > 100 µM | > 100 µM | > 100 µM | > 100 µM | > 100 µM | > 100 µM | > 100 µM | > 100 µM | > 100 µM | > 100 µM | > 100 µM | > 100 µM | > 100 µM | > 100 µM
4 | CC(C)(C)OC(=O)NC1CCCC1=O (stereo not given) | > 100 µM | > 100 µM | > 100 µM | > 100 µM | > 100 µM | > 100 µM | > 100 µM | > 100 µM | > 100 µM | > 100 µM | – | – | – | – | – | – | – | – | – | –
5 | C=CCNC(=O)N(CCC)CCCC(NC(C)=O)C(=O)NCc1ccccc1 (stereo not given) | > 100 µM | > 100 µM | > 100 µM | > 100 µM | > 100 µM | > 100 µM | > 100 µM | > 100 µM | > 100 µM | > 100 µM | – | – | – | – | – | – | – | – | – | –
6 | O=C(/C=C/c1cccc(O)c1)c1cccc(-n2cc(-c3ccc4ccccc4c3)[nH]c2=O)c1 | 8.91 µM | > 100 µM | 3.19 µM | 2.89 µM | 3.08 µM | 8.69 µM | 3.58 µM | 18.4 µM | 6.37 µM | 2.87 µM | 2.43 µM | 2.03 µM | 1.67 µM | 1.55 µM | 1.57 µM | 0.518 µM | 1.52 µM | 4.13 µM | 2.08 µM | 1.53 µM
7 | CCn1c(-c2nonc2N)nc2ccncc21 | > 25 µM | > 25 µM | > 25 µM | > 25 µM | > 25 µM | > 25 µM | > 25 µM | > 25 µM | > 25 µM | > 25 µM | > 25 µM | > 25 µM | > 25 µM | > 25 µM | > 25 µM | > 25 µM | > 25 µM | > 25 µM | > 25 µM | > 25 µM
8 | CCCCCCC(C)CCCCCCCCCCC(=O)O (stereo not given) | > 100 µM | > 100 µM | > 100 µM | > 100 µM | > 100 µM | > 100 µM | > 100 µM | > 100 µM | > 100 µM | > 100 µM | – | – | – | – | – | – | – | – | – | –
9 | CN(C)C(=S)Nc1nnc(Nc2ccccc2)s1 | > 100 µM | > 100 µM | > 100 µM | > 100 µM | > 100 µM | > 100 µM | > 100 µM | > 100 µM | > 100 µM | > 100 µM | – | – | – | – | – | – | – | – | – | –
10 | COc1ccc2c(NCCCCCCNc3c4ccccc4nc4cc(OC)ccc34)c3ccccc3nc2c1 | 3.49 µM | 0.549 µM | 1.1 µM | 1.03 µM | 1.01 µM | 2.07 µM | 0.819 µM | 4.12 µM | 2.55 µM | 0.486 µM | – | – | – | – | – | – | – | – | – | –
11 | CC1(O)CCn2c(=O)c3cc4ccccc4cc3c(=O)n2C1O (stereo not given) | > 100 µM | > 100 µM | > 100 µM | > 100 µM | > 100 µM | > 100 µM | > 100 µM | > 100 µM | > 100 µM | > 100 µM | – | – | – | – | – | – | – | – | – | –
12 | Nc1cc(-c2ccc(Cl)cc2)nn1-c1nnc(/C=C/c2ccco2)c(=O)[nH]1 | 67.4 µM | > 41 µM | 15.3 µM | 22.4 µM | 17.7 µM | 16.7 µM | 63.5 µM | 47.3 µM | 54.6 µM | > 100 µM | 10.1 µM | 2.26 µM | 2.15 µM | 4.4 µM | 3.09 µM | 2.6 µM | 7.73 µM | 6.55 µM | 7.44 µM | 6.61 µM
13 | Cn1c(=O)nc2n(-c3ccc(Cl)c(C(F)(F)F)c3)c3ccccc3nc-2c1=O | > 100 µM | > 100 µM | > 100 µM | > 79.9 µM | > 100 µM | > 100 µM | > 83.2 µM | 36.8 µM | 34.7 µM | 64.8 µM | – | – | – | – | – | – | – | – | – | –
14 | CC(C)(C)c1ccc(OC2CCO2)cc1 (stereo not given) | 92.8 µM | 65 µM | 53.3 µM | 98.6 µM | > 100 µM | 82 µM | > 100 µM | 87.3 µM | > 100 µM | 50.9 µM | – | – | – | – | – | – | – | – | – | –
15 | O=[N+]([O-])c1ccc(-c2cc3c(Nc4ccc(Cl)c(C(F)(F)F)c4)ncnc3s2)cc1 | > 100 µM | > 100 µM | > 100 µM | 9.4 µM | 7.6 µM | 4.95 µM | > 100 µM | > 26.8 µM | 4.19 µM | > 100 µM | 2.89 µM | 1.29 µM | 0.774 µM | 1.88 µM | 2.42 µM | 0.963 µM | 1.06 µM | 2.95 µM | 1.51 µM | 1.49 µM
16 | CCOC(OC1=C(C#N)CCCC1)C(CC)[Se]c1ccccc1 (stereo not given) | 49.6 µM | 56.4 µM | 34.2 µM | 31.7 µM | 95.5 µM | 61.3 µM | 31.5 µM | > 100 µM | > 100 µM | 73.6 µM | – | – | – | – | – | – | – | – | – | –
17 | CCCCCCCCCCCC1CC(=O)NCCCN(C)CCCCN(C)CCCN1C (stereo not given) | 3.43 µM | 2.85 µM | 2.66 µM | 3.17 µM | 3.08 µM | 2.68 µM | 3.12 µM | 3.06 µM | 3.33 µM | 2.97 µM | – | – | – | – | – | – | – | – | – | –

Reference: PubChem BioAssay (NCI)
